Entries after “also recorded” stand apart in the source; their conditions may differ.
Assays:
KM12C cells [1] = assay: MTT assay, KM12C cells; format: cell-based, human; conditions: KM12C cells at 96, 120 and 144 h after transfection
Description: (§1) Cells were transfected with pik3r1, Akt1 or scrambled siRNA at a density of 2×10^5 cells/well in 12 well plates. After 24 h, adherent cells were detached by rapid trypsinization, counted in a Hausser chamber and replated into 96 well plates at a concentration of 2×10^3 cells/well. […]

KM20 cells [2] = assay: Ribonuclease protection assay, KM20 cells; format: cell-based, human
Description: (§2) Cells were treated with pik3r1 and Akt1 siRNA and harvested 72 h later. RNA was isolated from cells using TRIzol® RNA reagent according to the manufacturer's protocol. A multiprobe template set (hAPO3c), which assesses expression of caspase 8, FASL, FAS, DR3, Decoy receptor 1 (DcR1), DR4, DR5, TRAIL, TNFR p55, TRADD and the housekeeping genes GAPDH and L32, as well as the Human Apoptosis hAPO-2b and hAPO-2c Template Set were labeled using Ambion T7 MAXIscript. The Ambion RPA III kit was then utilized to hybridize the RNA from the samples with the labeled probes. After RNAse treatment of hybridized samples, protected products were resolved on a 5% acrylamide gel, adsorbed onto filter paper, and exposed to Kodak BioMax MR film in a cassette at −70° C. and analyzed as previously described (Wang, et al., 2000).

KM20 tumor xenografts [3] = assay: Western blot of KM20 tumor xenografts after siRNA treatment; format: in vivo, mice
Description: (§3) Western immunoblot analyses were performed as described previously (Wang, et al., 2000). Cells were lysed with TNN buffer at 4° C. for 30 min. Lysates were clarified by centrifugation (10,000×g for 30 min at 4° C.) and protein concentrations determined using the method of Bradford (1976). Briefly, total protein (100 μg) was resolved on a 10% polyacrylamide gel and transferred to Immobilon-P […] membranes. Filters were incubated overnight at 4° C. in blotting solution (Tris-buffered saline containing 5% nonfat dried milk and 0.1% Tween 20), followed by a 1-h incubation with primary antibodies. Filters were washed three times in a blocking solution and incubated with horseradish peroxidase-conjugated secondary antibodies for 1 h. After three additional washes, the immune complexes were visualized by ECL detection.
(§4) Prior to tumor injection, KM20 cells were harvested, washed twice in ice-cold serum free minimum Eagle's medium, counted for viable cells by trypan blue exclusion. The cells were resuspended in the same medium and used to inject mice subcutaneously (sc) with 2×10^6 cells in a volume of 0.2 ml. After tumors reached ˜60 mm^2, mice were sacrificed and 9 mm^2 tumor xenografts were transferred to the left flank of athymic mice. After tumor xenografts reached ˜60 mm^2 (day 10), mice were randomly divided into three groups (n=5 mice/group): the first group of mice was treated with scrambled siRNA, the second and third groups were treated with siRNA (5 μg diluted in 100 μl of serum free medium) directed against pik3r1 or Akt1, respectively, as intratumoral injections. Treatments consisted of electrotherapy initiated from 2 to 3 min after intratumoral siRNA injection once a day every 3 days. Tumor growth was assessed every third day from day 10 onward by measuring the two greatest perpendicular tumor dimensions using vernier calipers (Mitutozo, Tokyo, Japan) (Wang, et al., 2002). Consistent with institutional requirements, the mice were euthanized once tumors grew to a size greater that 2 cm.
Electrotherapy consisted of intratumoral administration of pik3r1, Akt1 or scrambled control siRNA followed by exposure of tumor nodules to electric pulses. Square wave electric pulses of 70 μsec, 100 V amplitude were delivered through two parallel stainless steel electrodes (Tweezertrode Model 522, Holliston, Mass.) with an electropulsator BTX T 820 (Holliston, Mass.). In the study, plate electrodes with a distance of 10 mm between them were used for percutaneous delivery of electric pulses. Each run of electric pulses was delivered in two trains of tree pulses, with 1 sec interval, in two perpendicular directions. The orientation of the electric field was used to direct the uptake of the siRNA. Good contact between the electrodes and the skin was assured by means of a conductive gel. Nodules larger than 7 mm in diameter were treated with several runs of electric pulses, administered in adjacent positions in such a way that the whole tumor area was effectively treated.

KM12C cells [4] = assay: Ribonuclease protection assay, KM12C cells; format: cell-based, human
Description: as §2

KM20 cells [5] = assay: Western blot of apoptosis-related proteins, KM20 cells; format: cell-based, human
Description: Cell culture transfection was carried out with siPORT™ Amine transfection agent according to the manufacturer's protocol. Three days after transfection with the siRNA duplexes, cells were harvested and protein expression was assessed by Western blot.
as §3

KM20 cells [6] = assay: DNA fragmentation assay (Cell Death Detection ELISA), KM20 cells; format: cell-based, human; conditions: KM20 cells
Description: Cells were transfected with pik3r1, Akt1 or scrambled siRNA. After 48 h, adherent cells were detached by rapid trypsinization, counted in a Hausser chamber and seeded at a density of 2×10^3 cells per well in 96-well flat-bottom microtiter plates and incubated in 250 μl of growth medium for 24 h at 37° C. Media were removed and either new complete media or TRAIL (100 ng/mL) was added in a final volume of 200 μL and allowed to grow for 24 h at 37° C. After treatment, DNA fragmentation was evaluated by examination of cytoplasmic histone-associated DNA fragments (mono- and oligonucleosomes) using a Cell Death Detection ELISA^Plus kit (Roche Molecular Biochemicals) according to the manufacturer's instructions and as previously described (Wang. et al., 2002). The experiments were repeated on at least 3 separate occasions.

KM20 tumor xenografts [7] = assay: KM20 tumor xenograft growth in nude mice, intratumoral siRNA with electrotherapy; format: in vivo; conditions: 5 μg siRNA intratumoral + electric pulses every 3rd day; by day 12, persisted for the study period (30 days)
Description: For in vivo studies, 4-6 week old male nude^nu/nu mice were obtained from Harlan Sprague Dawley (Indianapolis, Ind.) and housed in clean pathogen-free rooms in an environment with controlled temperature (22° C.), humidity, and a 12 h light/dark cycle. The mice were fed standard chow (Formula Chow 5008; Purina Mills, St. Louis, Mo.) and tap water ad libitum and allowed to acclimate for one week.
as §4, with “Treatments consisted of electrotherapy initiated from 2 to 3 min after intratumoral siRNA injection once a day every 3 days.” left out, “Consistent with institutional requirements, the mice were euthanized once tumors grew to a size greater that 2 cm.” left out

KM20 cells [8] = assay: MTT assay, KM20 cells; format: cell-based, human; conditions: KM20 cells at 96, 120 and 144 h after transfection
Description: as §1

[9] = siRNA in combination with TRAIL

pik3r1 siRNA: siRNA to human pik3r1 (p85α) used in KM20/KM12C cells and xenografts; SEQ ID NO:24 vs. SEQ ID NO:25 (chain 1 GAAUAUACCCGCACAUCCCUU; chain 2 GGGAUGUGCGGGUAUAUUCUU; listed as RNA, chemistry not given here)
cell viability (MTT) (KM12C cells [1]): significantly decreased | Bcl-w mRNA expression (KM20 cells [2]): decreased | Bcl-x (L, S) mRNA expression (KM20 cells [2]): decreased | expression of the other apoptotic-related genes in the probe set (KM20 cells [2]): no marked change | mRNA expression of DR4 and DR5 (KM20 cells [2]): increased | Bax protein expression (KM20 tumor xenografts [3]): increased | PARP cleavage (KM20 tumor xenografts [3]): increased | activation of caspase-3 (KM20 tumor xenografts [3]): increased | activation of caspase-8 (KM20 tumor xenografts [3]): increased | activation of caspase-9 (KM20 tumor xenografts [3]): increased | p85α expression (KM20 tumor xenografts [3]): decreased | pAkt expression (KM20 tumor xenografts [3]): decreased | Bcl-xL protein expression (KM20 tumor xenografts [3]; compared to scrambled sequence): decreased | Mcl-1 protein expression (KM20 tumor xenografts [3]; compared to scrambled sequence): decreased | cytochrome C expression (KM20 tumor xenografts [3]; compared with scrambled control): increased | Bcl-w mRNA expression (KM12C cells [4]): decreased | Bcl-x (L, S) mRNA expression (KM12C cells [4]): decreased | Bax protein expression (KM20 cells [5]): increased | Bcl-2 protein expression (KM20 cells [5]): decreased | Bcl-xL protein expression (KM20 cells [5]): decreased | caspase-9 activation (35 kDa large active subunit) (KM20 cells [5]): activation | cytochrome C release (KM20 cells [5]): induced | protein expression for DR4/DR5 (KM20 cells [5]): increased | BID cleavage (KM20 cells [5]; [9]): BID cleavage | caspase-8 activation (KM20 cells [5]; [9]): activated | cleavage of pro-caspase-3 (KM20 cells [5]; siRNA in combination with TRAIL compared with TRAIL alone): enhanced | DNA fragmentation (apoptosis) (KM20 cells [6]; siRNA alone compared to scrambled sequence): increase; also recorded: induced | TRAIL-mediated apoptosis (DNA fragmentation) (KM20 cells [6]; siRNA in combination with TRAIL 100 ng/mL): significant augmentation | KM20 tumor growth (KM20 tumor xenografts [7]): Significant inhibitory effects | cell viability (MTT) (KM20 cells [8]): significantly decreased

— patent US20050272682A1, “SiRNA targeting PI3K signal transduction pathway and siRNA-based therapy” (priority 2004, published 2005)
